Data on one compound can be found in US7825139B2, “Compounds and methods for selective inhibition of dipeptidyl peptidase-IV” (Forest Laboratories Holdings Limited (BM), priority 2005, dated 2010).

One test addresses T1, DPP-VIII (Homo sapiens, UniProt Q6V1X1).
T1 construct: The full length cDNAs for human DPP-VII, DPP-VIII, DPP-IX, and FAP were obtained from Open Biosystems; 6xHis (C); made in house
The test is described as follows: DPP-VIII IC50 assay (Ala-Pro AMC), selectivity versus DPP-IV. Type of test: biochemical. The text has this:
The term “selectivity ratio” refers to the IC50 value generated in a biochemical assay measuring inhibition of DPP-IV compared to the IC50 value generated in a biochemical assay measuring inhibition of another DPP family member (e.g. DPP-VII, DPP-VIII, DPP-IX or FAP) whereby the ratio is obtained by dividing the IC50 value of DPP-VII, DPP-VIII, DPP-IX or FAP by the IC50 value for DPP-IV.
Materials. S9 insect cells and Sf-900 II SFM media were from Invitrogen. Anti-FLAG M2 immunoaffinity gel was from Sigma. Gly-Pro-AMC, Lys-Pro AMC, and Ala-Pro AMC were from Enzyme Systems. IC50 calculations were performed by non-linear regression analysis using Prism software (GraphPad). Preparation of DPP-VII, DPP-VIII, DPP-IX, and FAP baculovirus constructs. The full length cDNAs for human DPP-VII, DPP-VIII, DPP-IX, and FAP were obtained from Open Biosystems. […] Baculovirus was prepared using the Bac-to-Bac Baculovirus Expression System (Invitrogen). The cDNAs in the final baculovirus constructs were sequence verified. Baculovirus expression. […] Infection with DPP-VII, DPP-VIII, DPP-IX, and FAP baculoviral constructs were all performed at an MOI of 4. The infected cells were grown for 48 hours and the cell pellets harvested and frozen until purification. DPP-VII was purified using anti-FLAG immunoaffinity gel according to the manufacturer's instructions. DPP-VIII, DPP-IX, and FAP were purified using a B-PER 6xHis Fusion Protein Column Purification Kit from Pierce. IC50 assay. Recombinant DPPs were diluted in reaction buffer to give fluorescence values of 5000-20000 counts in the “enzyme only wells” 20 min after addition of substrate at 27° C. Reaction buffers were 25 mM (2-(4-Morpholino)-Ethane Sulfonic Acid), pH 5.5 for DPP-VII, 25 mM Tris, pH 8, 1% Triton X-100, 100 mM NaCl for DPP-VIII, and 25 mM Tris pH 8 for DPP-1× and FAP. Test wells in a 96-well microtiter plate contained 88 μL of diluted DPP and 2.5 ul of titrated compound in 50 mM glycine, pH 2.6. “Enzyme only” wells contained 88 uL of diluted DPP and 2.5 ul of glycine buffer. “No enzyme” wells contained 88 uL of reaction buffer without DPP and 2.5 ul of glycine buffer. All assays were done in triplicate. The plate was incubated at 27° C. for 10 min and then cooled on ice for 10 min. Ten microliters of substrate diluted in reaction buffer (40 uM final concentration) without Triton or NaCl were then added to all wells followed by incubation at 27C for 20 min. Substrates were Lys-Pro AMC for DPP-VII, and Ala-Pro AMC for DPP-VIII, DPP-IX, and FAP. Fluorescence in each well was measured at settings of 380/460 nm.

For the next test, the target named is T2, DPP-IX (Homo sapiens, UniProt Q86TI2).
T2 construct: The full length cDNAs for human DPP-VII, DPP-VIII, DPP-IX, and FAP were obtained from Open Biosystems; 6xHis (C); made in house
T2 sequence (Q86TI2 whole entry): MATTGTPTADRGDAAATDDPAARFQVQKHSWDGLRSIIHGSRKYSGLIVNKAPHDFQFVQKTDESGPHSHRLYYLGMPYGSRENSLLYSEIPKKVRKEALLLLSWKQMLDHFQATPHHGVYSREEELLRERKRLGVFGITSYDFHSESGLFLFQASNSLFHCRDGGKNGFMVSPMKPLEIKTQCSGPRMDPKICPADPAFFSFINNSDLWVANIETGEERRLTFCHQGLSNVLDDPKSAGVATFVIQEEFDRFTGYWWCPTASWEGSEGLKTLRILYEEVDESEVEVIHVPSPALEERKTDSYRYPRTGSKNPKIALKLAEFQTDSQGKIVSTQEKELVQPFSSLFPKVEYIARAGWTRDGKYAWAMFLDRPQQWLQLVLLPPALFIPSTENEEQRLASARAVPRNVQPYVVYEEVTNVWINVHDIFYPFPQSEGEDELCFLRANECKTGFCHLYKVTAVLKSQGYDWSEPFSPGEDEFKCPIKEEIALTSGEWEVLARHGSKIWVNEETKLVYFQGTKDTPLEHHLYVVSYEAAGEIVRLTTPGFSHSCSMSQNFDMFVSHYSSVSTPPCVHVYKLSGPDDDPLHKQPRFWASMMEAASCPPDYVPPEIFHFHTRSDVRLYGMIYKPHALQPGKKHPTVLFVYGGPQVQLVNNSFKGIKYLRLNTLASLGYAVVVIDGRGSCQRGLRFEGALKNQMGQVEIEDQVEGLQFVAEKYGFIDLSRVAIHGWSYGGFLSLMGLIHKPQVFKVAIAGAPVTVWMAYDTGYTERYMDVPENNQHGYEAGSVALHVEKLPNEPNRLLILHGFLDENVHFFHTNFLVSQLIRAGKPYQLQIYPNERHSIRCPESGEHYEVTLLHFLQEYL
The test is described as follows: DPP-IX IC50 assay (Ala-Pro AMC). The class given is biochemical. On the procedure:
Materials. S9 insect cells and Sf-900 II SFM media were from Invitrogen. Anti-FLAG M2 immunoaffinity gel was from Sigma. Gly-Pro-AMC, Lys-Pro AMC, and Ala-Pro AMC were from Enzyme Systems. IC50 calculations were performed by non-linear regression analysis using Prism software (GraphPad). Preparation of DPP-VII, DPP-VIII, DPP-IX, and FAP baculovirus constructs. The full length cDNAs for human DPP-VII, DPP-VIII, DPP-IX, and FAP were obtained from Open Biosystems. The cDNAs were cloned into the pFastBac vector with the addition of an N-terminal FLAG tag on DPP-VII, C-terminal 6xHis tags on DPP-VIII and DPP-IX, and an N-terminal 6xHis tag on FAP (Sun 2002, Qi 2003, and Chen 2004). Baculovirus was prepared using the Bac-to-Bac Baculovirus Expression System (Invitrogen). The cDNAs in the final baculovirus constructs were sequence verified. Baculovirus expression. S9 cells were grown to mid log phase at 27C with shaking at 125 RPM and then adjusted to 2×10E6/ml just prior to baculovirus infection. Infection with DPP-VII, DPP-VIII, DPP-IX, and FAP baculoviral constructs were all performed at an MOI of 4. […] Recombinant DPPs were diluted in reaction buffer to give fluorescence values of 5000-20000 counts in the “enzyme only wells” 20 min after addition of substrate at 27° C. […] Fluorescence in each well was measured at settings of 380/460 nm. […]

T1 sequence (Q6V1X1 whole entry): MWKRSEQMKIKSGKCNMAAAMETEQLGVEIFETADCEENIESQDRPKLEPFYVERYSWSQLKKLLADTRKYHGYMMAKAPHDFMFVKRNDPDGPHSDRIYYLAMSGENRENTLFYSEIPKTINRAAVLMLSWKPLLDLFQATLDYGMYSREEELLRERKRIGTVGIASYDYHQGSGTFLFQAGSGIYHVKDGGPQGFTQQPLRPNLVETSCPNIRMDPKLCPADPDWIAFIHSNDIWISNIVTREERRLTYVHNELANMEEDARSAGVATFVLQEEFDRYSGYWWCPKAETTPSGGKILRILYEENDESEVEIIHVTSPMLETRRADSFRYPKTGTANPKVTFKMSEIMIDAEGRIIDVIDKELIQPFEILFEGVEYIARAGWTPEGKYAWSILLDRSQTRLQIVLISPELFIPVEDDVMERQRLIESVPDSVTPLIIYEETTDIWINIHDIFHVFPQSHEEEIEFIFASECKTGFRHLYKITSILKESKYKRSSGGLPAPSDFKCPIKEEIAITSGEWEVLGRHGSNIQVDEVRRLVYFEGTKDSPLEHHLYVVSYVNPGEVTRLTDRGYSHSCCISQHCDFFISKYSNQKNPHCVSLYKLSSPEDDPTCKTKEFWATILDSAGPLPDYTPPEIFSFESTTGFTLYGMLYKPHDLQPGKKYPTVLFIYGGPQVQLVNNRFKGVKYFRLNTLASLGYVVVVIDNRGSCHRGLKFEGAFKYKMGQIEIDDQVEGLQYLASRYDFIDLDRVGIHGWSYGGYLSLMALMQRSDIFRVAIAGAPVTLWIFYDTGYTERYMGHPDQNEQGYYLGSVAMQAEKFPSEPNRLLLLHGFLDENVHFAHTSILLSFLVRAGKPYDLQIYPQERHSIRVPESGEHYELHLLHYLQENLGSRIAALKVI

`O=C(CNC1CCCC1)N1CCC[C@H]1B(O)O` [Compound 19]: the “inhibition of DPP-VIII (in words)” value against DPP-VIII is given as “potent inhibitor”. Moreover, on DPP-IX, the “inhibition of DPP-IX (in words)” value is on record as “potent inhibitor”.
